1 molecule from BindingDB's records for doi:10.1016/j.ejmech.2013.01.009 (Fudan University, 2013) can be followed below.

pIC50: −log10 of the molar value.

The target of this assay is Signal transducer and activator of transcription 3 (Homo sapiens, UniProt P40763). Put plainly: Inhibition of STAT3 in IL-6-stimulated human HepG2 cells treated for 1 hr prior to IL-6 challenge measured after 5.5 hrs by luciferase reporter gene assay. (Reporter assays use an easily measured gene product as a stand-in for the process of interest.)
Signal transducer and activator of transcription 3, sequence (P40763 whole entry): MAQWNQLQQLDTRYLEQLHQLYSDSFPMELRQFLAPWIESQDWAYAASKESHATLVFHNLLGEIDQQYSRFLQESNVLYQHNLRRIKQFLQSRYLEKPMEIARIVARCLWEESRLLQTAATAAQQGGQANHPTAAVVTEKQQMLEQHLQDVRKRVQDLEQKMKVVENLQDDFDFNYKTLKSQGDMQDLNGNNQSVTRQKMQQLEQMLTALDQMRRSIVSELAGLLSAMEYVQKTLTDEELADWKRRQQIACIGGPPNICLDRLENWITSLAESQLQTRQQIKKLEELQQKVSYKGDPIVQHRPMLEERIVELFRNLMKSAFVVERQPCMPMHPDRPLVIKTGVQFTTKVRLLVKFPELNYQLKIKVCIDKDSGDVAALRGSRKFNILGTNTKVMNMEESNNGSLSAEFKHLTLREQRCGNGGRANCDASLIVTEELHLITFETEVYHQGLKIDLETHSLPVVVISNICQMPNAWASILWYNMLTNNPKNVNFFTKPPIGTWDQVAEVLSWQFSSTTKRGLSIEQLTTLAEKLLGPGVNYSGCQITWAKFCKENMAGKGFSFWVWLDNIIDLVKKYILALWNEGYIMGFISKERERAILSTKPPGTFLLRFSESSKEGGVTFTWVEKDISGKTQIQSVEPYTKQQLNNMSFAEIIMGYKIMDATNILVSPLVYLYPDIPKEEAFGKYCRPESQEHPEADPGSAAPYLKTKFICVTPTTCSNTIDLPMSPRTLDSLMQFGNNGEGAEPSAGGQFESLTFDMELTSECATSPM

Turning to `CCC(Sc1nc2ccc(NC(=O)c3ccc(OC)cc3)cc2s1)C(=O)Nc1ccc(Br)cc1` (stereo unspecified), the pIC50 is 5.45.

The pIC50 is the negative decadic logarithm of the IC50, by convention in mol/L. Low values mean a large IC50, high ones a small IC50.
